Legend:
[1] = tested on: MT-4 cells; assay: Cytotoxicity in mock-infected MT-4 cells, MTT assay; type: cell-based; conditions: 50% reduction of viability of mock-infected MT-4 cells
Description: (§1) II. In vitro anti-HIV Assay in MT-4 Cells […]
(§2) performed using the MTT assay as described below. Stock solutions (10 × final concentration) of test compounds were added in 25 µL volumes to two series of […]
(§3) infected cells at the beginning of each experiment. Serial 5-fold dilutions of test […]
(§4) Biomek 3000 robot (Beckman Instruments, Fullerton, CA). Untreated HIV- and mock-infected cell samples were included as controls. HIV stock (50 µL) at 100-300 CCID50 […]
(§5) or mock-infected wells of the microtiter tray. Mock-infected cells were used to evaluate […]
(§6) cytotoxicity. Exponentially growing MT-4 cells were centrifuged for 5 minutes at 220 g, and the supernatant was discarded. […]
(§7) cells/mL, and 50 µL volumes were transferred to the microtiter tray wells. Five days […]
(§8) spectrophotometrically using the MTT assay. The MTT assay is based on the reduction […]
(§9) M1000, Tecan), at two wavelengths (540 and 690 nm). All data were calculated using the median absorbance value of three wells.
(§10) (OD540) of the mock-infected control sample by 50%. The concentration achieving 50%

[2] = tested on: HIV-2 (ROD); assay: Anti-HIV-2 (ROD) activity in MT-4 cells, MTT assay; type: cell-based; conditions: Human immunodeficiency virus 2, MT4, 50% protection against HIV-induced cytotoxicity
Description: (§11) II. In vitro anti-HIV Assay in MT-4 Cells
(§12) Evaluation of the antiviral activity of the compounds against HIV in MT-4 cells was performed using the MTT assay as described below. Stock solutions (10 × final concentration) of test compounds were added in 25 µL volumes to two series of triplicate wells to allow simultaneous evaluation of their effects on mock- and HIV-infected cells at the beginning of each experiment. Serial 5-fold dilutions of test compounds were made directly in flat-bottomed 96-well microtiter trays using a Biomek 3000 robot (Beckman Instruments, Fullerton, CA). Untreated HIV- and mock-infected cell samples were included as controls. HIV stock (50 µL) at 100-300 CCID50 (50 % cell culture infectious doses) or culture medium was added to either the infected or mock-infected wells of the microtiter tray. Mock-infected cells were used to evaluate the effects of the test compound on uninfected cells to assess the test compounds' cytotoxicity. Exponentially growing MT-4 cells were centrifuged for 5 minutes at 220 g, and the supernatant was discarded. […]
(§13) cells/mL, and 50 µL volumes were transferred to the microtiter tray wells. Five days after infection, the viability of mock-and HIV-infected cells was examined spectrophotometrically using the MTT assay. The MTT assay is based on the reduction of yellow colored 3-(4,5-dimethylthiazol-2-yl)-2,5-diphenyltetrazolium bromide (MTT) (Acros Organics) by mitochondrial dehydrogenase activity in metabolically active cells to a blue-purple formazan that can be measured spectrophotometrically. The absorbances were read in an eight-channel computer-controlled photometer (Infinite M1000, Tecan), at two wavelengths (540 and 690 nm). All data were calculated using the median absorbance value of three wells. […]
(§14) was defined as the concentration of the test compound that reduced the absorbance (OD540) of the mock-infected control sample by 50%. The concentration achieving 50% protection against the cytopathic effect of the virus in infected cells was defined as the […]

[3] = tested on: HIV-1 (IIIB); assay: microbe, parasite or virus in culture; type: cell-based; conditions: Human immunodeficiency virus 1, MT4, 50% protection against HIV-induced cytotoxicity, MT-4 cells, MTT
Description: as §11, §12, §13, §14

[4] = Cytotoxicity in mock-infected MT-4 cells, MTT assay; type: cell-based; conditions: human, 50% reduction of viability of mock-infected MT-4 cells
Description: as §1, §2, §3, §4, §5, §6, §7, §8, §9, §10

[5] = in vitro; conditions: both, human, plasma

Q: Which CC50 [1] does the source give for COc1ccc(N(C)C(=O)[C@H](Cc2ccccc2)NC(=O)CN2CCN(C(=O)Cc3c(C)[nH]c4ccccc34)CC2=O)cc1 [7a, (S)-N-(4-methoxyphenyl)-N-methyl-2-(2-(4-(2-(2-methyl-1H-indol-3-yl)acetyl)-2-oxopiperazin-1-yl)acetamido)-3-phenylpropanamide] here?
A: 108 ± 3.26 µM

Q: And the EC50 [2]?
A: 7.74 ± 0.79 µM

Q: And the EC50 [3]?
A: 14.3 ± 0.76 µM

Q: Which CC50 [1] does the source give for COc1ccc(N(C)C(=O)[C@H](Cc2ccccc2)NC(=O)CN2CCN(C(=O)Cc3c[nH]c4ccc(OC)cc34)CC2=O)cc1 [7b, (S)-2-(2-(4-(2-(5-methoxy-1H-indol-3-yl)acetyl)-2-oxopiperazin-1-yl)acetamido)-N-(4-methoxyphenyl)-N-methyl-3-phenylpropanamide] here?
A: 104 ± 3.37 µM

Q: What about the EC50 [2] of the same molecule?
A: 16.9 ± 3.58 µM

Q: What about the EC50 [3] of the same molecule?
A: 14.6 ± 0.39 µM

Q: Which CC50 [1] does the source give for COc1ccc(N(C)C(=O)[C@H](Cc2ccccc2)NC(=O)CN2CCN(C(=O)Cc3c[nH]c4ccc(Br)cc34)CC2=O)cc1 [7c, (S)-2-(2-(4-(2-(5-bromo-1H-indol-3-yl)acetyl)-2-oxopiperazin-1-yl)acetamido)-N-(4-methoxyphenyl)-N-methyl-3-phenylpropanamide] here?
A: 16.4 ± 3.44 µM

Q: What about the EC50 [2] of the same molecule?
A: > 16.4 µM

Q: And the EC50 [3]?
A: > 16.4 µM

Q: Which CC50 [1] does the source give for COc1ccc(N(C)C(=O)[C@H](Cc2ccccc2)NC(=O)CN2CCN(C(=O)Cc3c[nH]c4ccccc34)CC2=O)cc1 [7d, (S)-2-(2-(4-(2-(1H-indol-3-yl)acetyl)-2-oxopiperazin-1-yl)acetamido)-N-(4-methoxyphenyl)-N-methyl-3-phenylpropanamide] here?
A: 112 ± 3.22 µM

Q: What about the EC50 [2] of the same molecule?
A: 4.89 ± 1.39 µM

Q: And the EC50 [3]?
A: 15 ± 0.24 µM

Q: Which CC50 at 5 days [4] does the source give for COc1ccc(N(C)C(=O)[C@H](Cc2ccccc2)NC(=O)CN2CCN(C(=O)Cc3c[nH]c4ccc(O)cc34)CC2=O)cc1 [7e, (S)-2-(2-(4-(2-(5-hydroxy-1H-indol-3-yl)acetyl)-2-oxopiperazin-1-yl)acetamido)-N-(4-methoxyphenyl)-N-methyl-3-phenylpropanamide] here?
A: > 209 µM

Q: What about the EC50 [2] of the same molecule?
A: 186 ± 4.42 µM

Q: And the EC50 [3]?
A: 198 ± 9.74 µM

Q: For COc1ccc(N(C)C(=O)[C@H](Cc2ccccc2)NC(=O)CN2CCN(C(=O)Cc3c[nH]c4ccc(F)cc34)CC2=O)cc1 [7f, (S)-2-(2-(4-(2-(5-fluoro-1H-indol-3-yl)acetyl)-2-oxopiperazin-1-yl)acetamido)-N-(4-methoxyphenyl)-N-methyl-3-phenylpropanamide], which CC50 [1] is on record?
A: 90.1 ± 15.7 µM

Q: And the EC50 [2]?
A: 4.52 ± 0.87 µM

Q: And the EC50 [3]?
A: 21.8 ± 4.81 µM

Q: With COc1ccc(N(C)C(=O)[C@H](Cc2ccccc2)NC(=O)CN2CCN(C(=O)c3ccc(NC(C)=O)cc3)CC2=O)cc1 [7g, (S)-2-(2-(4-(4-acetamidobenzoyl)-2-oxopiperazin-1-yl)acetamido)-N-(4-methoxyphenyl)-N-methyl-3-phenylpropanamide] as the molecule, how does the CC50 at 5 days [4] read?
A: > 213 µM

Q: What about the EC50 [2] of the same molecule?
A: 184 ± 19.3 µM

Q: What about the EC50 [3] of the same molecule?
A: 203 ± 11 µM

Q: Which CC50 [1] does the source give for COc1ccc(N(C)C(=O)[C@H](Cc2ccccc2)NC(=O)CN2CCN(C(=O)c3ccc(NC(=O)C4CC4)cc3)CC2=O)cc1 [7i, (S)-N-(4-(4-(2-((1-((4-methoxyphenyl)(methyl)amino)-1-oxo-3-phenylpropan-2-yl)amino)-2-oxoethyl)-3-oxopiperazine-1-carbonyl)phenyl)cyclopropanecarboxamide] here?
A: 168 ± 19.8 µM

Q: And the EC50 [2]?
A: 15 ± 2.27 µM

Q: What about the EC50 [3] of the same molecule?
A: > 168 µM

Q: Which results are given for COc1ccc(N(C)C(=O)[C@H](Cc2cc(F)cc(F)c2)NC(=O)CN2CCN(C(=O)Cc3c(C)[nH]c4ccccc34)CC2=O)cc1 [F2-7a, (S)-3-(3,5-difluorophenyl)-N-(4-methoxyphenyl)-N-methyl-2-(2-(4-(2-(2-methyl-1H-indol-3-yl)acetyl)-2-oxopiperazin-1-yl)acetamido)propenamide]?
A: CC50 [1]: 76.9 ± 20 µM; EC50 [2]: 19.7 ± 6.59 µM; EC50 [3]: 20.8 ± 5.09 µM

Q: For COc1ccc(N(C)C(=O)[C@H](Cc2cc(F)cc(F)c2)NC(=O)CN2CCN(C(=O)Cc3c[nH]c4ccc(OC)cc34)CC2=O)cc1 [F2-7b, (S)-3-(3,5-difluorophenyl)-2-(2-(4-(2-(5-methoxy-1H-indol-3-yl)acetyl)-2-oxopiperazin-1-yl)acetamido)-N-(4-methoxyphenyl)-N-methylpropanamide], which CC50 [1] is on record?
A: 15.9 ± 3.83 µM

Q: What about the EC50 [2] of the same molecule?
A: > 15.9 µM

Q: And the EC50 [3]?
A: > 15.9 µM

Q: With COc1ccc(N(C)C(=O)[C@H](Cc2cc(F)cc(F)c2)NC(=O)CN2CCN(C(=O)Cc3c[nH]c4ccc(Br)cc34)CC2=O)cc1 [F2-7c, (S)-2-(2-(4-(2-(5-bromo-1H-indol-3-yl)acetyl)-2-oxopiperazin-1-yl)acetamido)-3-(3,5-difluorophenyl)-N-(4-methoxyphenyl)-N-methylpropanamide] as the molecule, how does the CC50 [1] read?
A: 3.15 ± 0.4 µM

Q: What about the EC50 [2] of the same molecule?
A: > 3.15 µM

Q: And the EC50 [3]?
A: > 3.15 µM

Q: Which CC50 [1] does the source give for COc1ccc(N(C)C(=O)[C@H](Cc2cc(F)cc(F)c2)NC(=O)CN2CCN(C(=O)Cc3c[nH]c4ccccc34)CC2=O)cc1 [F2-7d, (S)-2-(2-(4-(2-(1H-indol-3-yl)acetyl)-2-oxopiperazin-1-yl)acetamido)-3-(3,5-difluorophenyl)-N-(4-methoxyphenyl)-N-methylpropanamide] here?
A: 57.8 ± 21.8 µM

Q: And the EC50 [2]?
A: 17.6 ± 9.14 µM

Q: And the EC50 [3]?
A: 29.4 ± 7.03 µM

Q: For COc1ccc(N(C)C(=O)[C@H](Cc2cc(F)cc(F)c2)NC(=O)CN2CCN(C(=O)Cc3c[nH]c4ccc(O)cc34)CC2=O)cc1 [F2-7e, (S)-3-(3,5-difluorophenyl)-2-(2-(4-(2-(5-hydroxy-1H-indol-3-yl)acetyl)-2-oxopiperazin-1-yl)acetamido)-N-(4-methoxyphenyl)-N-methylpropanamide], which CC50 [1] is on record?
A: 132 ± 33 µM

Q: And the EC50 [2]?
A: ≥ 49.6 µM

Q: What about the EC50 [3] of the same molecule?
A: > 132 µM

Q: Which CC50 [1] does the source give for COc1ccc(N(C)C(=O)[C@H](Cc2cc(F)cc(F)c2)NC(=O)CN2CCN(C(=O)c3ccc(NC(C)=O)cc3)CC2=O)cc1 [F2-7g, (S)-2-(2-(4-(4-acetamidobenzoyl)-2-oxopiperazin-1-yl)acetamido)-3-(3,5-difluorophenyl)-N-(4-methoxyphenyl)-N-methylpropanamide] here?
A: 196 ± 6.8 µM

Q: What about the EC50 [2] of the same molecule?
A: 192 ± 4.57 µM

Q: And the EC50 [3]?
A: 177 ± 16.6 µM

Q: What does the source list for COc1ccc(N(C)C(=O)[C@H](Cc2cc(F)cc(F)c2)NC(=O)CN2CCN(C(=O)c3ccc(NC(=O)C4CC4)cc3)CC2=O)cc1 [F2-7i, (S)-N-(4-(4-(2-((3-(3,5-difluorophenyl)-1-((4-methoxyphenyl)(methyl)amino)-1-oxopropan-2-yl)amino)-2-oxoethyl)-3-oxopiperazine-1-carbonyl)phenyl)cyclopropanecarboxamide]?
A: CC50 [1]: 88.6 ± 11.3 µM; EC50 [2]: 15.1 ± 0.68 µM; EC50 [3]: 14.4 ± 1.31 µM

Q: What does the source list for COc1ccc(N(C)C(=O)[C@H](Cc2cc(F)cc(F)c2)NC(=O)CN2CCN(C(=O)c3ccc(NC(=O)C(F)(F)F)cc3)CC2=O)cc1 [F2-7j, (S)-3-(3,5-difluorophenyl)-N-(4-methoxyphenyl)-N-methyl-2-(2-(2-oxo-4-(4-(2,2,2-trifluoroacetamido)benzoyl)piperazin-1-yl)acetamido)propenamide]?
A: CC50 [1]: 150 ± 25.5 µM; EC50 [2]: 16.6 ± 6.13 µM; EC50 [3]: 13.7 ± 0.7 µM

Q: For Cc1[nH]c2ccccc2c1CC(=O)N[C@@H](Cc1ccccc1)C(=O)N(C)c1ccccc1 [PF74], which half-life at 2 μM [5] is on record?
A: > 289 min

Q: And the remaining at 0 h, 2 μM [5]?
A: 100%

Q: Which half-life at 2 μM [5] does the source give for CC(C)[N+](C)(CCOC(=O)C1c2ccccc2Oc2ccccc21)C(C)C [Propantheline bromide] here?
A: 11.2 min

Q: And the remaining at 0 h, 2 μM [5]?
A: 100%

Q: And the remaining at 10 min, 2 μM [5]?
A: 56.5%

Q: And the remaining at 0.5 h, 2 μM [5]?
A: 19.4%

Q: What about the remaining at 1 h, 2 μM [5] of the same molecule?
A: 1.9%

Q: What about the remaining at 2 h, 2 μM [5] of the same molecule?
A: 0.1%

Source: article PMC9739877, “Discovery and Mechanistic Investigation of Piperazinone Phenylalanine Derivatives with Terminal Indole or Benzene Ring as Novel HIV-1 Capsid Modulators” (Molecules, 2022)
